The record followed here is ChEMBL document CHEMBL2434853, “3-(3-Butylamino-2-hydroxy-propoxy)-1-hydroxy-xanthen-9-one acts as a topoisomerase IIα catalytic inhibitor with low DNA damage” (Eur J Med Chem, 2013).

Activity calls are given as the source filed them. The calls are words filed in the database; no cut-off is given here.

One assay relates to HEK293. The experiment in a line: Cytotoxicity against HEK293 cells after 2 days by CCK-8 assay. Type of assay: functional, cell-based. As to conditions: Homo sapiens, HEK293, 48 h. A general note: Tetrazolium dyes change colour on reduction, which living cells bring about.
Assay [1] deals with T1, DNA topoisomerase 2-alpha (Homo sapiens, UniProt P11388). As to the kind of experiment: Inhibition of human DNA topoisomerase-2alpha assessed as relaxation of supercoiled pBR322 DNA at 20 uM after 30 mins by agarose gel electrophoresis relative to control.
The target in assay [2] is T2, DNA topoisomerase 1 (Homo sapiens) (UniProt P11387).
T2 sequence (whole entry): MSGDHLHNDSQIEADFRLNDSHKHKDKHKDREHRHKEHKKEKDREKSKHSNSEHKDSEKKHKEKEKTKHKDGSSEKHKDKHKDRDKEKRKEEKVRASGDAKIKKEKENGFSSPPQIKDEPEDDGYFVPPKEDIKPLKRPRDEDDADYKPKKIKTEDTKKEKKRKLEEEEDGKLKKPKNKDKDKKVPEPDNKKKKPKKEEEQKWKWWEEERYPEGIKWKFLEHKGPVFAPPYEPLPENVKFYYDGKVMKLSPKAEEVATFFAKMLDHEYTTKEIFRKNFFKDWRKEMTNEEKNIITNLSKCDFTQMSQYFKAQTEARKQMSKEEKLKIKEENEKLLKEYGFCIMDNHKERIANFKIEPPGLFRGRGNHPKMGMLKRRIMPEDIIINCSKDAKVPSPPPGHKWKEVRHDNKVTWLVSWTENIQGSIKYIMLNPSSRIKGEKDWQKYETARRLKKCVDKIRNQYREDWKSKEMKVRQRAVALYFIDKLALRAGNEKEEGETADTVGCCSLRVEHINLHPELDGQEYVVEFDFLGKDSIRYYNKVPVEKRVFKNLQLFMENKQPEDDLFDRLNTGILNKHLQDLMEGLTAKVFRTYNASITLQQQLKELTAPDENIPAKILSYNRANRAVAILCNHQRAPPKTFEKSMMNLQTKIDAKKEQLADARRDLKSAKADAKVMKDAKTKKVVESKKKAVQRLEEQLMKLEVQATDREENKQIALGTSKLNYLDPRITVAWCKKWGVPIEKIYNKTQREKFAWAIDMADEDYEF
As to the kind of experiment: Inhibition of recombinant human DNA topoisomerase-1 assessed as relaxation of supercoiled pBR322 DNA at 20 uM after 30 mins by agarose gel electrophoresis relative to control.

A further assay relates to T47D. The experiment in a line: Cytotoxicity against human T47D cells after 2 days by CCK-8 assay. Type of assay: functional, cell-based. As to conditions: 48 h.
In assay [3] the target is T1, DNA topoisomerase 2-alpha. As to the kind of experiment: Inhibition of human DNA topoisomerase-2alpha assessed as relaxation of supercoiled pBR322 DNA after 30 mins by agarose gel electrophoresis.
In assay [4] the target is T1, DNA topoisomerase 2-alpha. As to the kind of experiment: Inhibition of human DNA topoisomerase-2alpha assessed as relaxation of supercoiled pBR322 DNA at 10 uM after 30 mins by agarose gel electrophoresis relative to control.
The test system of the next assay is DU-145. As to the kind of experiment: Cytotoxicity against human DU145 cells after 2 days by CCK-8 assay. Type of assay: functional, cell-based. As to conditions: DU-145, 48 h.
In assay [5] the test system is HCT-15. As to the kind of experiment: Cytotoxicity against human HCT15 cells after 2 days by CCK-8 assay. The conditions noted are these: HCT-15, 48 h. Type of assay: functional, cell-based.
For assay [6], the target named is T1, DNA topoisomerase 2-alpha. As to the kind of experiment: Inhibition of human DNA topoisomerase-2alpha assessed as relaxation of supercoiled pBR322 DNA at 100 uM after 30 mins by agarose gel electrophoresis relative to control.
In assay [7] the test system is Escherichia coli. The experiment in a line: Induction of Escherichia coli pBR322 DNA intercalating activity assessed as retardation of DNA at 1 to 2.5 uM after 20 mins by agarose gel electrophoresis.
Assay [8] can be described thus: Induction of pHOT1 DNA (unknown origin) intercalating activity assessed as blockade of DNA unwinding at 50 to 500 uM after 30 mins by agarose gel electrophoresis in presence of DNA topoisomerase-1.
The test system of assay [9] is HCT-15. As to the kind of experiment: Induction of DNA damage in human HCT15 cells at 10 uM after 24 hrs by comet assay. Type of assay: functional, cell-based.
The target of assay [10] is T1, DNA topoisomerase 2-alpha. As to conditions: 100 uM.
Description: Competitive inhibition of recombinant human DNA topoisomerase-2alpha assessed as relaxation of supercoiled pBR322 DNA at 100 uM after 30 mins by agarose gel electrophoresis in presence of 1 mM ATP relative to control
Assay [11] has as its target T1, DNA topoisomerase 2-alpha. As to conditions: 100 uM. The source holds these as a separate data set.
Description: Competitive inhibition of recombinant human DNA topoisomerase-2alpha assessed as relaxation of supercoiled pBR322 DNA at 100 uM after 30 mins by agarose gel electrophoresis in presence of 1.5 mM ATP relative to control
In assay [12] the target is T1, DNA topoisomerase 2-alpha. As to the kind of experiment: Inhibition of human DNA topoisomerase-2alpha ATPase activity using supercoiled pUC18 DNA as substrate assessed as inorganic phosphate release at 200 uM incubated for 30 mins prior to ATP addition measured after 30 mins by malachite green phosphate assay relative to control.
Assay [13] has as its target T1, DNA topoisomerase 2-alpha. The experiment in a line: Inhibition of human DNA topoisomerase-2alpha ATPase activity using supercoiled pUC18 DNA as substrate assessed as inorganic phosphate release at 400 uM incubated for 30 mins prior to ATP addition measured after 30 mins by malachite green phosphate assay relative to control.
Assay [14] deals with T1, DNA topoisomerase 2-alpha. As to the kind of experiment: Inhibition of human DNA topoisomerase-2alpha ATPase activity using supercoiled pUC18 DNA as substrate assessed as inorganic phosphate release at 300 uM incubated for 30 mins prior to ATP addition measured after 30 mins by malachite green phosphate assay relative to control.
Assay [15] concerns the target T1, DNA topoisomerase 2-alpha. The conditions noted are these: 20 uM.
Description: Competitive inhibition of recombinant human DNA topoisomerase-2alpha assessed as relaxation of supercoiled pBR322 DNA at 20 uM after 30 mins by agarose gel electrophoresis in presence of 1 mM ATP relative to control
The target in assay [16] is T1, DNA topoisomerase 2-alpha. The conditions noted are these: 10 uM.
Description: Competitive inhibition of recombinant human DNA topoisomerase-2alpha assessed as relaxation of supercoiled pBR322 DNA at 10 uM after 30 mins by agarose gel electrophoresis in presence of 1.5 mM ATP relative to control
Assay [17] concerns the target T1, DNA topoisomerase 2-alpha. As to conditions: 50 uM.
Description: Competitive inhibition of recombinant human DNA topoisomerase-2alpha assessed as relaxation of supercoiled pBR322 DNA at 50 uM after 30 mins by agarose gel electrophoresis in presence of 1 mM ATP relative to control
For assay [18], the target named is T1, DNA topoisomerase 2-alpha. As to conditions: 5 uM.
Description: Competitive inhibition of recombinant human DNA topoisomerase-2alpha assessed as relaxation of supercoiled pBR322 DNA at 5 uM after 30 mins by agarose gel electrophoresis in presence of 1.5 mM ATP relative to control
For assay [19], the target named is T1, DNA topoisomerase 2-alpha. The conditions noted are these: 2 uM.
Description: Competitive inhibition of recombinant human DNA topoisomerase-2alpha assessed as relaxation of supercoiled pBR322 DNA at 2 uM after 30 mins by agarose gel electrophoresis in presence of 1.5 mM ATP relative to control
The target of assay [20] is T1, DNA topoisomerase 2-alpha. The conditions noted are these: 50 uM. The source holds these as a separate data set.
Description: Competitive inhibition of recombinant human DNA topoisomerase-2alpha assessed as relaxation of supercoiled pBR322 DNA at 50 uM after 30 mins by agarose gel electrophoresis in presence of 1.5 mM ATP relative to control
The nature of assay [21]: Induction of pHOT1 DNA (unknown origin) intercalating activity assessed as blockade of DNA unwinding after 30 mins by agarose gel electrophoresis in presence of DNA topoisomerase-1.
In assay [22] the test system is Escherichia coli. The experiment in a line: Induction of Escherichia coli pBR322 DNA intercalating activity assessed as retardation of DNA at 300 uM after 20 mins by agarose gel electrophoresis.
The target of assay [23] is T1, DNA topoisomerase 2-alpha. As to conditions: 5 uM. The source holds these as a separate data set.
Description: Competitive inhibition of recombinant human DNA topoisomerase-2alpha assessed as relaxation of supercoiled pBR322 DNA at 5 uM after 30 mins by agarose gel electrophoresis in presence of 1 mM ATP relative to control
The target in assay [24] is T1, DNA topoisomerase 2-alpha. The conditions noted are these: 10 uM. This is another data set of the same source.
Description: Competitive inhibition of recombinant human DNA topoisomerase-2alpha assessed as relaxation of supercoiled pBR322 DNA at 10 uM after 30 mins by agarose gel electrophoresis in presence of 1 mM ATP relative to control
The target in assay [25] is T1, DNA topoisomerase 2-alpha. As to conditions: 2 uM. The source holds these as a separate data set.
Description: Competitive inhibition of recombinant human DNA topoisomerase-2alpha assessed as relaxation of supercoiled pBR322 DNA at 2 uM after 30 mins by agarose gel electrophoresis in presence of 1 mM ATP relative to control
Assay [26] concerns HCT-15. The experiment in a line: Potency index, ratio of etoposide IC50 to compound IC50 for human HCT15 cells. Type of assay: functional.
Assay [27] concerns the target T1, DNA topoisomerase 2-alpha. As to conditions: 20 uM. This is another data set of the same source.
Description: Competitive inhibition of recombinant human DNA topoisomerase-2alpha assessed as relaxation of supercoiled pBR322 DNA at 20 uM after 30 mins by agarose gel electrophoresis in presence of 1.5 mM ATP relative to control

T1 sequence (P11388 whole entry): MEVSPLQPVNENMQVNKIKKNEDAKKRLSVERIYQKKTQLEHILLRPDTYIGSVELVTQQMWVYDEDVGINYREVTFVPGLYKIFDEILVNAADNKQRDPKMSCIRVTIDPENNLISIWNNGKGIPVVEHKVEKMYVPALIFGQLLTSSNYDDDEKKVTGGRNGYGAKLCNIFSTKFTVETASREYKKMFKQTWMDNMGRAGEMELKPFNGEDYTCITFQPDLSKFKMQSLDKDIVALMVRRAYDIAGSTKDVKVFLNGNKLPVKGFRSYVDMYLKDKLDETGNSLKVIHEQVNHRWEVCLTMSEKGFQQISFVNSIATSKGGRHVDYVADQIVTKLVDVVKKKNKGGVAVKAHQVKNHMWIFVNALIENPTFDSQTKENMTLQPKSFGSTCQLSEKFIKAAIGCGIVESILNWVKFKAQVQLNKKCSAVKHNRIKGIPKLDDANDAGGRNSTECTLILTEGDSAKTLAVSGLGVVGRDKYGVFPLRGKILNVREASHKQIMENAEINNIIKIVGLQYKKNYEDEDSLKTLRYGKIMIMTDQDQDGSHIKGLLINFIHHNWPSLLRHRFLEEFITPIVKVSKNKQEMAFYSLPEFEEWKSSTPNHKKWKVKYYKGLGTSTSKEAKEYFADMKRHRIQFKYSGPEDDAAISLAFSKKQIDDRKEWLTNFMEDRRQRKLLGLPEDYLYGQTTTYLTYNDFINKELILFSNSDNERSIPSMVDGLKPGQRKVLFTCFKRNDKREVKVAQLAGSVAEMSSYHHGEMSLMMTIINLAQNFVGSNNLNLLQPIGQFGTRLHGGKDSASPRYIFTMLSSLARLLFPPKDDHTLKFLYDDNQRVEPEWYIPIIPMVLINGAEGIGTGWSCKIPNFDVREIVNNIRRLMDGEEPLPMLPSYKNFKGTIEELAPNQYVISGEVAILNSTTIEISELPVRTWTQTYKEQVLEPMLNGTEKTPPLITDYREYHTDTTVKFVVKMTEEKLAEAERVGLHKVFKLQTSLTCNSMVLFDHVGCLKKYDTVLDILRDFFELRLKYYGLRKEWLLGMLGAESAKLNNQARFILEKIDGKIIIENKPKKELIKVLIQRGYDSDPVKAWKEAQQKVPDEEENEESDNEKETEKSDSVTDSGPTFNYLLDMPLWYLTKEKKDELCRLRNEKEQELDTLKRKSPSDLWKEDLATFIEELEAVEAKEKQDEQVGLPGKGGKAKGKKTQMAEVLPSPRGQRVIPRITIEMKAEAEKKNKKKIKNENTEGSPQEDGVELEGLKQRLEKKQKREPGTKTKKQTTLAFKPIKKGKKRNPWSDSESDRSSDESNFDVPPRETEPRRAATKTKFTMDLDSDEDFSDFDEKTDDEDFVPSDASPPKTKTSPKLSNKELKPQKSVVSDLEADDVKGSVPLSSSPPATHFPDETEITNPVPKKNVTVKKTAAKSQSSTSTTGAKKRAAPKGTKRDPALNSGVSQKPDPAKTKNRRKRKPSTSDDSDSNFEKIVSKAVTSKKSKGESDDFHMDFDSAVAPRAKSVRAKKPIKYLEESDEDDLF

For the compound `CCCNCC(O)COc1cc(O)c2c(=O)c3cccc(OC)c3oc2c1` (configuration not stated), the IC50 (commonly the concentration that gives 50% inhibition) with HEK293 amounted to 3.62 µM; with T47D it was 3.33 µM; in assay [3] it was 12 µM; in the assay with DU-145, 1.48 µM; in the assay on HCT-15 [5] it was 5.39 µM. Also, the inhibition (in general, the change of the read-out against control, counted positive when it falls) in assay [1] was 64.4%; in [2], 0%; in [4], 6%; in assay [6] it was 100%.

Turning to `CCCCNCC(O)COc1cc(O)c2c(=O)c3cccc(OC)c3oc2c1` (configuration not stated), the IC50 in the assay with HEK293 amounted to 1.74 µM; in the assay on T47D, 2.97 µM; in assay [3], 11.2 µM; with DU-145 it was 3.31 µM; with HCT-15 [5], 9.11 µM. For the same compound, the inhibition in assay [1] stood at 68.1%; in assay [2], 0%; in [4] it was 24.2%; in assay [6] it was 100%.

Take `CC[n+]1c(-c2ccccc2)c2cc(N)ccc2c2ccc(N)cc21`: the result with Escherichia coli [7] was Active.

As to `CCCCCCNCC(O)COc1cc(O)c2c(=O)c3ccccc3oc2c1` (configuration not stated), the IC50 stood at 1.45 µM in the assay with HEK293; 1.28 µM with T47D; 19.7 µM in [3]; 1.15 µM in the assay with DU-145; 1.53 µM with HCT-15 [5]. Besides, the inhibition in assay [1] came out at 43.6%; in assay [2], 0%; in assay [4], 0%; in assay [6] it was 80.7%.

Take `COc1cc(NS(C)(=O)=O)ccc1Nc1c2ccccc2nc2ccccc12`: in assay [8], the result was Active.

`COc1cc([C@@H]2c3cc4c(cc3[C@@H](O[C@@H]3O[C@@H]5CO[C@@H](C)O[C@H]5[C@H](O)[C@H]3O)[C@H]3COC(=O)[C@H]23)OCO4)cc(OC)c1O` [ETOPOSIDE]: the IC50 amounted to 0.72 µM in the assay on HEK293, 3.42 µM in the assay on T47D, 9.29 µM in the assay with DU-145 and 5.12 µM in the assay on HCT-15 [5]. Moreover, the inhibition in assay [4] turned out to be 18%; in assay [10], 87.6%; in assay [11] it was 82.6%. Moreover, the result with HCT-15 [9] was Active.

As for `CCCCCNCC(O)COc1cc(O)c2c(=O)c3ccccc3oc2c1` (configuration not stated), the IC50 with HEK293 was 2.65 µM; in the assay on T47D, 1.62 µM; in [3] it was 16.4 µM; in the assay with DU-145, 1.13 µM; with HCT-15 [5] it was 0.71 µM. The inhibition in assay [1] amounted to 52.1%; in assay [2], 3%; in assay [4], 0.7%; in [6], 92.9%.

With `CO[C@@H]1[C@@H](OC(N)=O)[C@@H](O)[C@H](Oc2ccc3c(O)c(NC(=O)c4ccc(O)c(CC=C(C)C)c4)c(=O)oc3c2C)OC1(C)C`, the inhibition in assay [12] came to 14.4%; in [13] it was 76.8%; in assay [14], 63.6%.

Turning to `CC[C@@]1(O)C(=O)OCc2c1cc1n(c2=O)Cc2cc3ccccc3nc2-1` [CAMPTOTHECIN], the IC50 is 0.78 µM in the assay on HEK293, 0.3 µM in the assay on T47D, 0.39 µM in the assay with DU-145 and 0.42 µM in the assay on HCT-15 [5].

As to `CCCNCC(O)COc1cc(O)c2c(=O)c3ccccc3oc2c1` (configuration not stated), the IC50 was 4.28 µM with HEK293; 6.49 µM in the assay on T47D; 10.4 µM in assay [3]; 1.98 µM with DU-145; 5.49 µM with HCT-15 [5]. In addition, the inhibition in [1] is 60.2%; in assay [2], 0%; in assay [4] it was 50.2%; in assay [6], 93.8%.

As for `CCCCCCNCC(O)COc1cc(O)c2c(=O)c3cccc(OC)c3oc2c1` (configuration not stated), the IC50 in the assay with HEK293 was found to be 4.53 µM; in the assay on T47D, 6.17 µM; in assay [3], 13.8 µM; in the assay on DU-145 it was 1.79 µM; in the assay with HCT-15 [5], 6.32 µM. Moreover, the inhibition amounted to 61.2% in [1], 0% in assay [2], 0% in [4] and 100% in assay [6].

As for `CCCCNCC(O)COc1cc(O)c2c(=O)c3ccccc3oc2c1` (configuration not stated), the inhibition in [15] was 87.9%; in assay [16] it was 21%; in assay [1] it was 67.7%; in assay [17], 87.7%; in assay [18], 17.5%; in [2], 0%. The inhibition in [19] was 7.1%; in [20] it was 64.9%; in assay [12], 15.1%; in [23], 48.5%; in assay [24], 60.4%; in assay [13], 33.7%. Further, the inhibition in assay [14] turned out to be 23.9%; in assay [25], 4%; in [4], 64%; in [10], 88.7%; in assay [11], 88.7%; in assay [27], 37.7%. In assay [6], the inhibition is 95.1%. The IC50 with HEK293 came out at 3.44 µM; in the assay with T47D it was 0.93 µM; in assay [3], 9 µM; in the assay on DU-145 it was 1.98 µM; in the assay with HCT-15 [5], 0.78 µM. Also, the Activity result in assay [21] was “Dose-dependent effect”. For the same compound, the result with Escherichia coli [22] was Active. In the assay on HCT-15 [26], the “Ratio IC50” value is 6.6. Besides, in the assay with HCT-15 [9], the outcome was inactive.

With `CCCCCNCC(O)COc1cc(O)c2c(=O)c3cccc(OC)c3oc2c1` (configuration not stated), the IC50 is 7.22 µM with HEK293; 9.8 µM in the assay with T47D; 13.8 µM in assay [3]; 0.91 µM with DU-145; 1 µM with HCT-15 [5]. Besides, the inhibition in assay [1] was 62.6%; in assay [2] it was 0%; in assay [4], 2%; in assay [6], 100%.

Take `COc1cccc2c1C(=O)c1c(O)c3c(c(O)c1C2=O)C[C@@](O)(C(=O)CO)C[C@@H]3O[C@H]1C[C@H](N)[C@H](O)[C@H](C)O1` [DOXORUBICIN]: the concentration for half-maximal inhibition (IC50) with HEK293 was determined as 3.07 µM; with T47D it was 0.41 µM; in the assay with DU-145, 2.68 µM; in the assay with HCT-15 [5] it was 1.38 µM.
